The supplement of paper PMC11451515

System: P12-Ichikawa
Test: cell viability relative to DMSO control; higher = less cytotoxic
Conditions: 48 h
How it was run: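 Library compounds in DMSO were pin-dosed into 1536-well plates (5 μl) holding NOMO1 or SEM (500 cells/well) or P12-Ichikawa (1000 cells/well) leukemia cells, across an 11-point threefold series of 47 μM to 0.79 nM. Each cell line had been adapted for at least four passages in each medium. CellTiter-Glo One luminescence was read after 48 h at 37°C. Viability is the per-plate percentage relative to DMSO wells, with cell-free wells as background.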

[1] = HPLM + 10% dialyzed FBS, 0.000781 µM
[2] = HPLM + 10% dialyzed FBS, 0.00234 µM
[3] = HPLM + 10% dialyzed FBS, 0.00702 µM
[4] = HPLM + 10% dialyzed FBS, 0.0211 µM
[5] = HPLM + 10% dialyzed FBS, 0.0632 µM
[6] = HPLM + 10% dialyzed FBS, 0.19 µM
[7] = HPLM + 10% dialyzed FBS, 0.569 µM
[8] = HPLM + 10% dialyzed FBS, 1.71 µM
[9] = HPLM + 10% dialyzed FBS, 5.12 µM
[10] = HPLM + 10% dialyzed FBS, 15.4 µM
[11] = HPLM + 10% dialyzed FBS, 46.1 µM
[12] = RPMI 5 mM glucose + 10% FBS, 0.000781 µM
[13] = RPMI 5 mM glucose + 10% FBS, 0.00234 µM
[14] = RPMI 5 mM glucose + 10% FBS, 0.00702 µM
[15] = RPMI 5 mM glucose + 10% FBS, 0.0211 µM
[16] = RPMI 5 mM glucose + 10% FBS, 0.0632 µM
[17] = RPMI 5 mM glucose + 10% FBS, 0.19 µM
[18] = RPMI 5 mM glucose + 10% FBS, 0.569 µM
[19] = RPMI 5 mM glucose + 10% FBS, 1.71 µM
[20] = RPMI 5 mM glucose + 10% FBS, 5.12 µM
[21] = RPMI 5 mM glucose + 10% FBS, 15.4 µM
[22] = RPMI 5 mM glucose + 10% FBS, 46.1 µM
[23] = RPMI 5 mM glucose + 10% dialyzed FBS, 0.000781 µM
[24] = RPMI 5 mM glucose + 10% dialyzed FBS, 0.00234 µM
[25] = RPMI 5 mM glucose + 10% dialyzed FBS, 0.00702 µM
[26] = RPMI 5 mM glucose + 10% dialyzed FBS, 0.0211 µM
[27] = RPMI 5 mM glucose + 10% dialyzed FBS, 0.0632 µM
[28] = RPMI 5 mM glucose + 10% dialyzed FBS, 0.19 µM
[29] = RPMI 5 mM glucose + 10% dialyzed FBS, 0.569 µM
[30] = RPMI 5 mM glucose + 10% dialyzed FBS, 1.71 µM
[31] = RPMI 5 mM glucose + 10% dialyzed FBS, 5.12 µM
[32] = RPMI 5 mM glucose + 10% dialyzed FBS, 15.4 µM
[33] = RPMI 5 mM glucose + 10% dialyzed FBS, 46.1 µM

Structure (SMILES): O=C(C=CC#Cc1cccc(N[S+](=O)([O-])c2ccccc2)c1)NO
- cell viability [1]: 110%
- cell viability [2]: 113%
- cell viability [3]: 118%
- cell viability [4]: 116%
- cell viability [5]: 119%
- cell viability [6]: 114%
- cell viability [7]: 103%
- cell viability [8]: 92.7%
- cell viability [9]: 3.67%
- cell viability [10]: 3.02%
- cell viability [11]: 3%
- cell viability [12]: 113%
- cell viability [13]: 119%
- cell viability [14]: 116%
- cell viability [15]: 123%
- cell viability [16]: 117%
- cell viability [17]: 116%
- cell viability [18]: 122%
- cell viability [19]: 75.6%
- cell viability [20]: 6.32%
- cell viability [21]: 3.14%
- cell viability [22]: 2.9%
- cell viability [23]: 113%
- cell viability [24]: 114%
- cell viability [25]: 117%
- cell viability [26]: 121%
- cell viability [27]: 117%
- cell viability [28]: 117%
- cell viability [29]: 113%
- cell viability [30]: 80.4%
- cell viability [31]: 3.83%
- cell viability [32]: 2.6%
- cell viability [33]: 2.95%

Structure (SMILES): FC1=CC=C(C=C1)N2/C=C\C=C(C(=O)NC3=CC=C(OC4=C5C=C[NH]C5=NC=C4)C(=C3)F)/C2=O
- cell viability [1]: 99%
- cell viability [2]: 111%
- cell viability [3]: 107%
- cell viability [4]: 114%
- cell viability [5]: 117%
- cell viability [6]: 118%
- cell viability [7]: 122%
- cell viability [8]: 112%
- cell viability [9]: 114%
- cell viability [10]: 123%
- cell viability [11]: 115%
- cell viability [12]: 104%
- cell viability [13]: 111%
- cell viability [14]: 121%
- cell viability [15]: 112%
- cell viability [16]: 132%
- cell viability [17]: 119%
- cell viability [18]: 128%
- cell viability [19]: 122%
- cell viability [20]: 127%
- cell viability [21]: 119%
- cell viability [22]: 111%
- cell viability [23]: 109%
- cell viability [24]: 107%
- cell viability [25]: 114%
- cell viability [26]: 125%
- cell viability [27]: 117%
- cell viability [28]: 124%
- cell viability [29]: 125%
- cell viability [30]: 119%
- cell viability [31]: 129%
- cell viability [32]: 120%
- cell viability [33]: 114%

Structure (SMILES): N[S+]([O-])(=O)C1=C(Cl)C=C2\N=C/N[S+]([O-])(=O)C2=C1
- cell viability [1]: 101%
- cell viability [2]: 100%
- cell viability [3]: 102%
- cell viability [4]: 97.5%
- cell viability [5]: 106%
- cell viability [6]: 108%
- cell viability [7]: 108%
- cell viability [8]: 119%
- cell viability [9]: 110%
- cell viability [10]: 106%
- cell viability [11]: 109%
- cell viability [12]: 97.3%
- cell viability [13]: 106%
- cell viability [14]: 107%
- cell viability [15]: 113%
- cell viability [16]: 117%
- cell viability [17]: 114%
- cell viability [18]: 112%
- cell viability [19]: 122%
- cell viability [20]: 115%
- cell viability [21]: 120%
- cell viability [22]: 122%
- cell viability [23]: 101%
- cell viability [24]: 96.2%
- cell viability [25]: 111%
- cell viability [26]: 115%
- cell viability [27]: 114%
- cell viability [28]: 110%
- cell viability [29]: 114%
- cell viability [30]: 100%
- cell viability [31]: 115%
- cell viability [32]: 115%
- cell viability [33]: 109%

Structure (SMILES): O=C1NC(=O)/C(=C/c2ccc3nccc(-c4ccncc4)c3c2)S1
- cell viability [1]: 112%
- cell viability [2]: 120%
- cell viability [3]: 122%
- cell viability [4]: 115%
- cell viability [5]: 98.4%
- cell viability [6]: 95.9%
- cell viability [7]: 83.8%
- cell viability [8]: 68.4%
- cell viability [9]: 57.4%
- cell viability [10]: 36.1%
- cell viability [11]: 5.85%
- cell viability [12]: 109%
- cell viability [13]: 107%
- cell viability [14]: 103%
- cell viability [15]: 109%
- cell viability [16]: 96.2%
- cell viability [17]: 74.5%
- cell viability [18]: 64.2%
- cell viability [19]: 50.2%
- cell viability [20]: 32.6%
- cell viability [21]: 17.1%
- cell viability [22]: 7.42%
- cell viability [23]: 104%
- cell viability [24]: 109%
- cell viability [25]: 114%
- cell viability [26]: 115%
- cell viability [27]: 98.8%
- cell viability [28]: 83.3%
- cell viability [29]: 68.2%
- cell viability [30]: 51.1%
- cell viability [31]: 34.3%
- cell viability [32]: 20.6%
- cell viability [33]: 6.67%

Structure (SMILES): COC(=O)C[C@](O)(CCCC(C)(C)O)C(=O)O[C@@H]1C(OC)=CC23CCCN2CCc2cc4c(cc2[C@H]13)OCO4 (some centres not stated)
- cell viability [1]: 105%
- cell viability [2]: 102%
- cell viability [3]: 111%
- cell viability [4]: 99.4%
- cell viability [5]: 110%
- cell viability [6]: 106%
- cell viability [7]: 102%
- cell viability [8]: 97.1%
- cell viability [9]: 102%
- cell viability [10]: 91.3%
- cell viability [11]: 88.1%
- cell viability [12]: 99%
- cell viability [13]: 101%
- cell viability [14]: 111%
- cell viability [15]: 94.8%
- cell viability [16]: 91.5%
- cell viability [17]: 101%
- cell viability [18]: 103%
- cell viability [19]: 97.7%
- cell viability [20]: 95.1%
- cell viability [21]: 91.7%
- cell viability [22]: 94.1%
- cell viability [23]: 102%
- cell viability [24]: 104%
- cell viability [25]: 98.6%
- cell viability [26]: 99.7%
- cell viability [27]: 102%
- cell viability [28]: 98.3%
- cell viability [29]: 97.3%
- cell viability [30]: 96%
- cell viability [31]: 91.6%
- cell viability [32]: 100%
- cell viability [33]: 89.5%

Structure (SMILES): COc1ccc([S+](=O)([O-])N(C(C)=O)c2ccccc2/C=C/c2cc[n+]([O-])cc2)cc1
- cell viability [1]: 119%
- cell viability [2]: 125%
- cell viability [3]: 118%
- cell viability [4]: 121%
- cell viability [5]: 125%
- cell viability [6]: 118%
- cell viability [7]: 116%
- cell viability [8]: 64.9%
- cell viability [9]: 24.5%
- cell viability [10]: 25.1%
- cell viability [11]: 10.5%

Structure (SMILES): O=C1[C@H](Cc2ccc(O)cc2)N2C(=O)CCN(C(=O)NCc3ccccc3)[C@H]2CN1Cc1cccc2ccccc12
- cell viability [1]: 86.7%
- cell viability [2]: 90.8%
- cell viability [3]: 85.3%
- cell viability [4]: 89.4%
- cell viability [5]: 87.9%
- cell viability [6]: 88.1%
- cell viability [7]: 85.4%
- cell viability [8]: 85.5%
- cell viability [9]: 91.2%
- cell viability [10]: 47.9%
- cell viability [11]: 85.8%
- cell viability [12]: 76.6%
- cell viability [13]: 84.4%
- cell viability [14]: 76.3%
- cell viability [15]: 83%
- cell viability [16]: 88.6%
- cell viability [17]: 87.7%
- cell viability [18]: 83%
- cell viability [19]: 74%
- cell viability [20]: 84.1%
- cell viability [21]: 35%
- cell viability [22]: 84.2%
- cell viability [23]: 77.4%
- cell viability [24]: 78.2%
- cell viability [25]: 80.4%
- cell viability [26]: 79.5%
- cell viability [27]: 85%
- cell viability [28]: 82.1%
- cell viability [29]: 77.3%
- cell viability [30]: 75.4%
- cell viability [31]: 81.1%
- cell viability [32]: 33.2%
- cell viability [33]: 72.5%

Structure (SMILES): S=C(NCc1ccc2c(c1)OCO2)N1CCN(c2ncnc3c2oc2ccccc23)CC1
- cell viability [1]: 115%
- cell viability [2]: 111%
- cell viability [3]: 114%
- cell viability [4]: 106%
- cell viability [5]: 111%
- cell viability [6]: 102%
- cell viability [7]: 105%
- cell viability [8]: 95.6%
- cell viability [9]: 69.5%
- cell viability [10]: 65.2%
- cell viability [11]: 33.2%
- cell viability [12]: 105%
- cell viability [13]: 106%
- cell viability [14]: 108%
- cell viability [15]: 103%
- cell viability [16]: 111%
- cell viability [17]: 102%
- cell viability [18]: 96.2%
- cell viability [19]: 74.1%
- cell viability [20]: 52.7%
- cell viability [21]: 54%
- cell viability [22]: 29.6%
- cell viability [23]: 114%
- cell viability [24]: 110%
- cell viability [25]: 115%
- cell viability [26]: 106%
- cell viability [27]: 107%
- cell viability [28]: 108%
- cell viability [29]: 99%
- cell viability [30]: 77.8%
- cell viability [31]: 60.4%
- cell viability [32]: 64.6%
- cell viability [33]: 35.3%
